Measured values published in PubChem BioAssay AID2060500 (Molecular Pharmacology Branch, DTP, NCI, 2025).
One block for each compound: values may come before it.

System: 596521-263-R-J1-PDC complex spheroids, viability % of control
Test: Anticancer human tumor 596521-263-R-J1-PDC patient-derived soft tissue sarcoma cell line growth inhibition [GQUAD]
Details: for IC50: curve of first compound; for viability, T/C: stronger effect = lower value
Method in brief: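 Tumor cells were grown as complex spheroids with HUVEC endothelial cells and mesenchymal stem cells as stroma. G-quadruplex stabilizers were combined with targeted agents over half-log dilutions from near the clinical Cmax, or from 10 microM.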

[1] = second compound 0.0316 µM, first compound 0.0316 µM
[2] = second compound 0.0316 µM, first compound 0.1 µM
[3] = second compound 0.0316 µM, first compound 0.316 µM
[4] = second compound 0.0316 µM, first compound 1 µM
[5] = second compound 0.0316 µM, first compound 3.16 µM
[6] = second compound 0.0316 µM, first compound 10 µM
[7] = second compound 0.1 µM, first compound 0.0316 µM
[8] = second compound 0.1 µM, first compound 0.1 µM
[9] = second compound 0.1 µM, first compound 0.316 µM
[10] = second compound 0.1 µM, first compound 1 µM
[11] = second compound 0.1 µM, first compound 3.16 µM
[12] = second compound 0.1 µM, first compound 10 µM
[13] = second compound 0.316 µM, first compound 0.0316 µM
[14] = second compound 0.316 µM, first compound 0.1 µM
[15] = second compound 0.316 µM, first compound 0.316 µM
[16] = second compound 0.316 µM, first compound 1 µM
[17] = second compound 0.316 µM, first compound 3.16 µM
[18] = second compound 0.316 µM, first compound 10 µM
[19] = second compound 1 µM, first compound 0.0316 µM
[20] = second compound 1 µM, first compound 0.1 µM
[21] = second compound 1 µM, first compound 0.316 µM
[22] = second compound 1 µM, first compound 1 µM
[23] = second compound 1 µM, first compound 3.16 µM
[24] = second compound 1 µM, first compound 10 µM
[25] = second compound 3.16 µM, first compound 0.0316 µM
[26] = second compound 3.16 µM, first compound 0.1 µM
[27] = second compound 3.16 µM, first compound 0.316 µM
[28] = second compound 3.16 µM, first compound 1 µM
[29] = second compound 3.16 µM, first compound 3.16 µM
[30] = second compound 3.16 µM, first compound 10 µM
[31] = second compound 10 µM, first compound 0.0316 µM
[32] = second compound 10 µM, first compound 0.1 µM
[33] = second compound 10 µM, first compound 0.316 µM
[34] = second compound 10 µM, first compound 1 µM
[35] = second compound 10 µM, first compound 3.16 µM
[36] = second compound 10 µM, first compound 10 µM
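Note: spheroids exposed to drugs for 7 days before viability reading.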
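Throughout, for viability, T/C: 100% = DMSO vehicle control viability.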

SMILES: C#Cc1c(F)ccc2cc(O)cc(-c3ncc4c(N5CC6CCC(C5)N6)nc(OCC56CCCN5CC(F)C6)nc4c3F)c12 (centres undefined) + Cc1[nH]c2ccc(F)cc2c1-c1nc2c3cccnc3c3ncccc3c2[nH]1
IC50 (second compound 0.0316 µM): 1.28 µM
IC50 (second compound 0.1 µM): 1.39 µM
IC50 (second compound 0.316 µM): 1.38 µM
IC50 (second compound 1 µM): 1.35 µM
IC50 (second compound 3.16 µM): 1.71 µM
IC50 (second compound 10 µM): 1.49 µM
viability, T/C [1]: 111%
viability, T/C [2]: 94.7%
viability, T/C [3]: 89.1%
viability, T/C [4]: 60.9%
viability, T/C [5]: 17.9%
viability, T/C [6]: 18.9%
viability, T/C [7]: 104%
viability, T/C [8]: 93.3%
viability, T/C [9]: 97.4%
viability, T/C [10]: 62.1%
viability, T/C [11]: 17.5%
viability, T/C [12]: 22.7%
viability, T/C [13]: 113%
viability, T/C [14]: 95.6%
viability, T/C [15]: 97.3%
viability, T/C [16]: 62.5%
viability, T/C [17]: 16.1%
viability, T/C [18]: 21.2%
viability, T/C [19]: 88%
viability, T/C [20]: 87.7%
viability, T/C [21]: 92.9%
viability, T/C [22]: 59.9%
viability, T/C [23]: 21.1%
viability, T/C [24]: 22.5%
viability, T/C [25]: 83.8%
viability, T/C [26]: 95.1%
viability, T/C [27]: 80.7%
viability, T/C [28]: 65.9%
viability, T/C [29]: 31.6%
viability, T/C [30]: 29%
viability, T/C [31]: 78.3%
viability, T/C [32]: 78%
viability, T/C [33]: 81%
viability, T/C [34]: 60.8%
viability, T/C [35]: 29.1%
viability, T/C [36]: 30%

IC50 (second compound 0.0316 µM): 0.769 µM
IC50 (second compound 0.1 µM): 0.481 µM
IC50 (second compound 0.316 µM): 0.343 µM
IC50 (second compound 1 µM): 0.592 µM
IC50 (second compound 3.16 µM): 0.196 µM
IC50 (second compound 10 µM): < 0.0316 µM
SMILES: C=CCn1c(=O)c2cnc(Nc3ccc(N4CCN(C)CC4)cc3)nc2n1-c1cccc(C(C)(C)O)n1 + Cc1cnc(CNC(=O)c2c(=O)c3ccc(N4CCCN(C)CC4)nc3n3c2sc2ccccc23)cn1
viability, T/C [1]: 88.4%
viability, T/C [2]: 79.2%
viability, T/C [3]: 61.2%
viability, T/C [4]: 48.8%
viability, T/C [5]: 32.6%
viability, T/C [6]: 31.4%
viability, T/C [7]: 78.3%
viability, T/C [8]: 72.9%
viability, T/C [9]: 55.3%
viability, T/C [10]: 40.8%
viability, T/C [11]: 38.3%
viability, T/C [12]: 40.8%
viability, T/C [13]: 84.8%
viability, T/C [14]: 62.2%
viability, T/C [15]: 50.7%
viability, T/C [16]: 40.9%
viability, T/C [17]: 38.5%
viability, T/C [18]: 26.8%
viability, T/C [19]: 62.9%
viability, T/C [20]: 60%
viability, T/C [21]: 58.4%
viability, T/C [22]: 41.9%
viability, T/C [23]: 36.5%
viability, T/C [24]: 24.3%
viability, T/C [25]: 50.6%
viability, T/C [26]: 54.3%
viability, T/C [27]: 49.1%
viability, T/C [28]: 39.1%
viability, T/C [29]: 32.7%
viability, T/C [30]: 25.6%
viability, T/C [31]: 43.4%
viability, T/C [32]: 12.9%
viability, T/C [33]: 36.4%
viability, T/C [34]: 33.8%
viability, T/C [35]: 20.8%
viability, T/C [36]: 0.23%
